Reference: paper PMC7290078, “Agonist bias and agonist‐dependent antagonism at corticotrophin releasing factor receptors” (Pharmacology Research & Perspectives, 2020)
No end group written: not given here.

Legend:
CRF1 receptor (hCRF1α) = molecular target: T1, CRF1 receptor (hCRF1α) (Homo sapiens, UniProt P34998); assay: cAMP accumulation (LANCE) in Cos7 cells transfected with hCRF1α, agonist stimulation; type: cell-based
T1 construct: host or cells: Cos7 cells, transient transfection (PEI), pcDNA3.0/3.1 vector
T1 sequence (P34998 24-415): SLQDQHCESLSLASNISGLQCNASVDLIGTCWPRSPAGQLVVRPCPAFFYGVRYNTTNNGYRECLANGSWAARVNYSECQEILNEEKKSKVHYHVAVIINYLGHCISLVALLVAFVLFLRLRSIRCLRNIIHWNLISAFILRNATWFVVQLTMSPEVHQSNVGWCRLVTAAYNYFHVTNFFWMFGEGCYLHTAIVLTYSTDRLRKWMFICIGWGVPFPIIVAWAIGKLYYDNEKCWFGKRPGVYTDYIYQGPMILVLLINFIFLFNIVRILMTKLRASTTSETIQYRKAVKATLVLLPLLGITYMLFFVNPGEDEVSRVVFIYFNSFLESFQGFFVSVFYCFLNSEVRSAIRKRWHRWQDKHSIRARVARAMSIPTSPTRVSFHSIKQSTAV
Description: (§1) Plasmids containing hCRF1α and hCRF2α (GenBank accession numbers AY457172 and AY449734) were obtained from the cDNA Resource Centre (Bloomsburg University) and are referred to as CRF1 and CRF2 in this manuscript. Hemagglutinin (HA) epitope‐tagged human Calcitonin (CT) receptor (CT(a) splice variant) and myc‐tagged human RAMP1 were used as described previously. ^27 HA‐tagged human calcitonin receptor‐like receptor (CLR), N‐terminal FLAG‐tagged human RAMP3 and N‐terminal myc‐tagged human RAMP3 were a gift from Professor David Poyner (Aston University) and Professor Patrick Sexton (Monash University), respectively. N‐terminal FLAG‐tagged human RAMP2 was used as described previously. ^28 All receptors and RAMPs were cloned in pcDNA3.0 or pcDNA3.1 plasmid vectors. All plasmid inserts were sequenced at the Centre for Genomics, Proteomics and Metabolomics (University of Auckland) and the sequences were verified prior to use.
Cos7, HEK‐293S, and HEK‐293T cells were cultured as described previously. ^28 , ^29 Cos7 cells were originally supplied by the ATCC to Associate Professor Nigel Birch (University of Auckland). HEK‐293S cells were a gift from Professor David Poyner (Aston University) and HEK‐293T cells a gift from Professor John Taylor (University of Auckland). Briefly, all cell lines were cultured in Dulbecco's Modified Eagle Medium (DMEM) supplemented with 8% heat inactivated fetal bovine serum (FBS) and maintained in a humidified incubator at 37°C with 5% CO2. For transfection, cells were counted (Countess CounterTM; Life Technologies) and plated at a density of 20 000 cells per well in 96‐well plates. The cells were transiently transfected 48 hours prior to assaying using polyethylenimine (PEI), as described previously. ^28 , ^29 In all experiments a total of 0.25 μg DNA was transfected per well. In the majority of experiments 0.25 μg DNA of receptor‐containing plasmid or the pcDNA3.1 plasmid without an insert was used. For experiments involving RAMPs, 0.125 μg of receptor DNA and 0.125 μg of RAMP‐containing plasmid DNA were transfected to give a 1:1 ratio of receptor to RAMP. […]
cAMP accumulation in Cos7 cells transfected with hCRF1α or hCRF2α receptors was measured using the LANCE cAMP detection assay kit (PerkinElmer Life and Analytical Sciences) as described previously. ^30 Briefly, culture media was removed and replaced with DMEM containing 0.1% bovine albumin serum (BSA) and 1 mmol/L 3‐isobutyl‐1‐methylxanthine (IBMX) for 30 minutes at 37°C. […] Samples were shaken for 15 minutes before 5 µL cell lysate was transferred to a white 384‐well optiplate and processed for cAMP quantification as described previously. ^31 Samples were read using an Envision plate reader (PerkinElmer). cAMP concentrations were determined from a standard curve generated in duplicate. […]

CRF2 receptor (hCRF2α) = molecular target: T2, CRF2 receptor (hCRF2α) (Homo sapiens, UniProt Q13324); assay: IP1 accumulation (IP-one Gq) in Cos7 cells transfected with hCRF2α, agonist stimulation; type: cell-based
T2 construct: host or cells: Cos7 cells, transient transfection (PEI), pcDNA3.0/3.1 vector
T2 sequence (Q13324 1-411): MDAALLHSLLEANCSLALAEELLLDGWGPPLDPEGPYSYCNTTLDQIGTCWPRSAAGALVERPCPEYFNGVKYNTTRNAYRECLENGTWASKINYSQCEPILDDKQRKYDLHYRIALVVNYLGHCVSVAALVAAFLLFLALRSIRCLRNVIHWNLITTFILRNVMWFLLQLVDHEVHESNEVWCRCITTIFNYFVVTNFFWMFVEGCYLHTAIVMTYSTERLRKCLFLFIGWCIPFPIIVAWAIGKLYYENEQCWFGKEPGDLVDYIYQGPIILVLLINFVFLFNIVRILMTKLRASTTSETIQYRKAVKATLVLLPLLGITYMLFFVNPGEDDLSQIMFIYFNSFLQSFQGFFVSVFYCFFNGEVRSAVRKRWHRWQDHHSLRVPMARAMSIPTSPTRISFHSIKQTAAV
Description: as §1
Cos7, HEK‐293S, and HEK‐293T cells were cultured as described previously. ^28 , ^29 Cos7 cells were originally supplied by the ATCC to Associate Professor Nigel Birch (University of Auckland). HEK‐293S cells were a gift from Professor David Poyner (Aston University) and HEK‐293T cells a gift from Professor John Taylor (University of Auckland). Briefly, all cell lines were cultured in Dulbecco's Modified Eagle Medium (DMEM) supplemented with 8% heat inactivated fetal bovine serum (FBS) and maintained in a humidified incubator at 37°C with 5% CO2. For transfection, cells were counted (Countess CounterTM; Life Technologies) and plated at a density of 20 000 cells per well in 96‐well plates. The cells were transiently transfected 48 hours prior to assaying using polyethylenimine (PEI), as described previously. ^28 , ^29 In all experiments a total of 0.25 μg DNA was transfected per well. In the majority of experiments 0.25 μg DNA of receptor‐containing plasmid or the pcDNA3.1 plasmid without an insert was used. For experiments involving RAMPs, 0.125 μg of receptor DNA and 0.125 μg of RAMP‐containing plasmid DNA were transfected to give a 1:1 ratio of receptor to RAMP. Where the RAMP or receptor were transfected alone, the ratio of DNA was made up with the pcDNA3.1 plasmid.
The IP‐one Gq assay kit (Cisbio) was used to quantify accumulated myo‐inositol‐1‐phosphate (IP1), a by‐product of IP3 produced after receptor‐mediated Gαq activation in Cos7 and HEK‐293S cells. Briefly, culture media was removed and replaced with DMEM containing 0.1% BSA for 30 minutes at 37°C. Cells were then incubated with media containing 50 mmol/L lithium chloride (LiCl) for an additional 0‐120 minutes (time courses) or 90 minutes at 37°C in the presence or absence of an antagonist. Agonist concentrations of 1 pmol/L to 10 µmol/L were used for agonist only assays or 10 pmol/L to 10 µmol/L concentrations for antagonist experiments. After cell stimulation, 14 µL of stimulation buffer was added to each well. Three microlitres of each detection antibody were added in turn to the plate and incubated at room temperature for 1 hour. Fifteen microliters of sample was then transferred to a 384‐well optiplate and read by an Envision plate reader (PerkinElmer). IP1 concentrations were calculated from a standard curve generated in duplicate.
In all experiments the position of peptides and antagonists (pharmacology) or transfected receptors (ELISAs) on assay plates was randomized during each independent experiment, which are independent biological replicates. […]

Row | Substance | EC50 (CRF1 receptor (hCRF1α); cAMP, hCRF1α, Cos7, 15 min at 37°C, 1 mmol/L IBMX, 1 pmol/L to 1 µmol/L agonist, mean ± SEM, n = 5) [nM] | EC50 (CRF2 receptor (hCRF2α); IP1, hCRF2α, Cos7, 90 min at 37°C, 50 mmol/L LiCl, 1 pmol/L to 10 µmol/L agonist, mean ± SEM, n = 5) [nM] | concentration‐dependent increase in cAMP (CRF1 receptor (hCRF1α); CRF1 receptor) | concentration‐dependent increase in IP1 accumulation (CRF2 receptor (hCRF2α); CRF2 receptor) | Hill slope (CRF2 receptor (hCRF2α); IP1, CRF2 receptor) | Δlog(τ/K A) (relative efficacy) (CRF2 receptor (hCRF2α); IP1, hCRF2α, reference agonist UCN1, mean ± SEM, n = 5) | ΔΔlog(τ/K A) (signaling bias) (CRF2 receptor (hCRF2α); IP1 relative to cAMP, hCRF2α, reference agonist UCN1, mean ± SEM, n = 5)
1 | DNPSLSIDLTFHLLRTLLELARTQSQRERAEQNRIIFDSV-NH2 [UCN1] | 0.107 | 4.68 |  |  |  |  | 
2 | IVLSLDVPIGLLQILLEQARARAAREQATTNARILARVGHC-NH2 (C-terminus assumed) [UCN2] |  |  | not UCN2 and UCN3 exhibited a concentration‐dependent increase | concentration‐dependent increases | not significantly different from one | −1.42 ± 0.13 | −0.87 ± 0.23
